Experimental data reported in the SangsterLogP compilation.

assay: method code SF-RC, from DOI: 10.1021/jf60225a019, PMID: 546944

| logP | Structure (SMILES) |
| --- | --- |
| 3.57 | COc1ccc(C(c2ccc(OC)cc2)C(C)(C)C)cc1 |
| 3.58 | CCOc1ccc(C(c2ccc(OCC)cc2)C(C)Cl)cc1 (stereo unspecified) |
| 3.25 | CCOc1ccc(C(c2ccc(OCC)cc2)C(C)(C)Cl)cc1 |
| 3.55 | CCOc1ccc(C(c2ccc(C)cc2)C(C)C)cc1 (stereo unspecified) |
| 3.19 | CCOc1ccc(C(c2ccc(C)cc2)C(C)Cl)cc1 (stereo unspecified) |
| 3.46 | CCOc1ccc(C(c2ccc(C)cc2)C(C)[N+](=O)[O-])cc1 (stereo unspecified) |
| 3.61 | CCOc1ccc(C(c2ccc(OCC)cc2)C(C)C)cc1 |
| 3.45 | CCOc1ccc(C(c2ccc(OCC)cc2)C(C)[N+](=O)[O-])cc1 (stereo unspecified) |
| 3.65 | CCOc1ccc(C(c2ccc(OCC)cc2)C(Cl)Cl)cc1 |
| 3.16 | CCOc1ccc(C(c2ccc(OCC)cc2)C(C)(C)C)cc1 |
| 3.64 | CCOc1ccc(C(c2ccc(OCC)cc2)C(C)(Cl)Cl)cc1 |
